“Also recorded” adds a separate entry of the source.
How the values were obtained:
all utilized cell lines = test: Activity distribution between supernatant, wash and cells, summary over all utilized cell lines; assay type: in vitro ADME; details: end of incubation period (2 h); range over cell lines
Method: (§1) HepG2 cells were cultured in DMEM GlutaMax (Gibco, Paisley, UK) with 10% fetal calf serum (FCS) and with selective antibiotics (penicillin/streptomycin for wildtype, Zeocin (InvivoGen, San Diego, CA, USA) for CYP1A2, and Blasticidin (Gibco, Carlsbad, CA, USA) for CYP2C19 and CYP3A4 cultures). As a negative control, cultures of CHO cultivated in Ham’s F-12 medium (Gibco) with 10% FCS and 2 mM glutamine were added for the radiotracer experiments. Cells were handled under a laminar flow hood (Thermo Scientific^TM Safe 2020, Langenselbold, Germany) and were split once or twice a week by trypsinization. Cell cultures were stored horizontally in a humidified incubator (Heracell240i) at 37 °C and 5% CO2. […] Cell density was determined with a cell counter (CASY® Model TT from Schärfe System, Reutlingen, Germany). […]
Initially, CYP-overexpressing HepG2 and, as controls, HepG2 wildtype, as well as CHO (Chinese hamster ovary) cells, were incubated as an adhered monolayer in a 96-well plate with a relatively high activity concentration of [^18F]1 (25 MBq/mL; workflow according to Figure 1A, upper panel), and the supernatant and cell lysates were investigated by radio-TLC. […] As a result (Table 1), the main fraction of activity was found in the supernatant (64–91%), while only a negligible to low amount of activity was measured in cell lysates (1–16%). […]

HepG2 CYP1A2 [1] = test: Competitive coincubation of [18F]1 with competitors, HepG2 CYP1A2; details: 1 h; without any additional substance; 120–125 nM [18F]1
Method: (§2) Radio thin-layer chromatography (radio-TLC) was carried out on reversed-phase TLC plates (ALUGRAM RP-18W/UV254 from Macherey-Nagel, Düren, Germany) with a mobile phase of 45% ACN in water containing 0.1% trifluoroacetic acid. The samples (2 µL) were spotted onto the TLC plate. The line of origin and the front line were labeled with 1/5 of the sample activity concentration. To track the Rf value of the intact radiotracer, each TLC was spotted with the intact tracer as reference in the middle. Detection of the activity signals was achieved after 10–30 min development on radioluminographic imaging plates (FUJIFILM, Tokyo, Japan) and subsequent readout with Fuji BAS 5000® or Amersham™ Typhoon™ from GE Healthcare (Uppsala, Sweden). The resulting chromatographic profile was analyzed and integrated with the help of AIDA Image Analysis Software (version 5.1). For data depiction, the fraction of each species (intact radiotracer, metabolite, [^18F]fluoride) was plotted.
(§3) Incubations were conducted for up to 2 h in a 96-well plate in KHB with a total incubation volume of 50 µL and an ethanol concentration of 0.4%. For the incubation with radiotracers, an activity of 100–200 kBq/well at the start of the experiment was used.
(§4) Our last interest within this study was to test if the tracer itself could function as an indicator for the conversion of other substrates acting via inhibition of or competition with the CYP enzymes. In this regard, alternative substrates were added to the incubation mixtures with [^18F]1. The investigated substrates covered testosterone, caffeine, progesterone, compound 3, tebufelone, and RWJ63556 [44] (10 µM for all substances). Furthermore, the influence of testosterone on the metabolic turnover of [^18F]1 was investigated over a concentration range of 1–50 µM.
Figure 7 Coincubation of [^18F]1 and different competitors with (A) HepG2 CYP1A2 and (B) HepG2 CYP2C19. […] Each competitor/inhibitor was incubated with [^18F]1 for 1 h followed by radio-TLC analysis. Activity concentrations of 94–197 kBq/well (1.9–3.9 MBq/mL) were used at start of experiment, which correspond to a concentration of 120–125 nM. Statistical analysis performed with Dunnett’s multiple comparison (post hoc test) according to the intact tracer amount (* p < 0.05; *** p < 0.001; **** p < 0.0001; n = 4).

HepG2 CYP2C19 [2] = test: Radiotracer metabolic stability, CYP2C19-overexpressing HepG2 cells; assay type: in vitro ADME, human
Method: (§5) CYP-overexpressing human hepatocellular carcinoma cells (HepG2) were previously generated on the basis of subcloning human CYP1A2 [18], CYP2C19 [20], and CYP3A4 [21] cDNA into a lentiviral expression vector. The cDNA expression in the resulting vector was controlled by the human cytomegalovirus (CMV) promoter. The lentivirus expression vectors were used to produce recombinant lentivirus particles according to standard methods to infect HepG2 cells. Infected cells were selected with 3 µg/mL blasticidin for CYP2C19 and CYP3A4 and 500 µg/mL zeocin for CYP1A2 overexpression 48 h after infection. Within 3–4 weeks, antibiotic-resistant cell colonies were picked to obtain single cell-derived HepG2 clones. For more detailed information on the generation procedure of CYP-overexpressing HepG2 cells, see Steinbrecht et al..
(§6) HepG2 cells were cultured in DMEM GlutaMax (Gibco, Paisley, UK) with 10% fetal calf serum (FCS) and with selective antibiotics (penicillin/streptomycin for wildtype, Zeocin (InvivoGen, San Diego, CA, USA) for CYP1A2, and Blasticidin (Gibco, Carlsbad, CA, USA) for CYP2C19 and CYP3A4 cultures). As a negative control, cultures of CHO cultivated in Ham’s F-12 medium (Gibco) with 10% FCS and 2 mM glutamine were added for the radiotracer experiments. Cells were handled under a laminar flow hood (Thermo Scientific^TM Safe 2020, Langenselbold, Germany) and were split once or twice a week by trypsinization. Cell cultures were stored horizontally in a humidified incubator (Heracell240i) at 37 °C and 5% CO2. During the time of experimental work, the utilized cell lines were regularly checked for mycoplasma. Cells were seeded in duplicates into a 96-well plate (CellStar®) with a density of 3 × 10^5 cells/well and cultured until the next day at 37 °C and 5% CO2. Cell density was determined with a cell counter (CASY® Model TT from Schärfe System, Reutlingen, Germany). Before the addition of substrates, cells were washed twice with Krebs–Henseleit buffer (KHB). The HEPES-supplemented Krebs–Henseleit buffer (pH 7.4, KHB) was freshly prepared using HEPES (5.95 g/L), D-glucose (2.0 g/L), magnesium sulfate (0.141 g/L), potassium dihydrogenphosphate (0.16 g/L), potassium chloride (0.35 g/L), sodium chloride (6.9 g/L), calcium chloride dihydrate (0.373 g/L), and sodium bicarbonate (2.1 g/L), followed by adjustment to pH 7.4 with NaOH. The utilized substances within this study were neither found (see Supplementary Materials, Figure S14) nor reported to be cytotoxic within the utilized concentration range and incubation duration.
(§7) Incubations with radiotracer compounds were conducted, on the one hand, with radioactive ^18F-labeled compounds alone (time dependency) and, on the other hand, in the presence of 50 µM nonradioactive reference (carrier addition). For the investigation of a time-dependent metabolite formation, 2 µL aliquots were withdrawn from the supernatant, directly spotted onto the TLC plate, and analyzed as described above. The same procedure was performed for carrier-added samples.
UPLC–MS analyses were performed to verify the degradation behavior of the test compounds and to gain insights into the identity of the formed metabolites. Using radiotracer incubation samples, 40 µL aliquots of the carrier-added incubations were withdrawn followed by addition of 160 µL of ACN and centrifugation (14,000 rpm (18,800–20,800× g), 4 °C, 5 min). Samples were frozen at −20 °C, and activity was allowed to decay before further mass-spectrometric analyses. Additionally, incubations with the nonradioactive references were carried out with 100 nM or 50 µM (according to the carrier-added samples) and analyzed. UPLC–MS/MS was performed using System 2 (55% isocratic elution for quantification of intact compound, or 25–75% gradient for nonradioactive metabolite analysis). The MRM mode was optimized with a solution of respective reference compounds diluted in eluent. […]

[3] = tested on: CHO (Chinese hamster ovary) cells; test: Radiotracer metabolic stability, CHO cells (negative control), radio-TLC; assay type: in vitro ADME; details: up to 2 h
Method: as §1, with “CO2. During the time of experimental work, the utilized cell lines were regularly checked for mycoplasma.” for “CO2.”
as §7, with “The same procedure was performed for carrier-added samples.” left out

[4] = tested on: human liver microsomes (HLMs); test: Microsome assay, human liver microsomes; assay type: in vitro ADME; details: for Amount of intact tracer: radio-TLC
Method: (§8) The stability of [^18F]1 toward liver microsomes was analyzed under oxidative conditions with MLMs (MSMCP, Lot: MS046-C) and HLMs (HMMCPL; Lot: PL050E-B) according to a previously described procedure. In brief, 12.5 µL of the respective microsomes (final 1 mg/mL) were mixed with 110.4 µL of PBS, followed by the addition of 100 µL of [^18F]1 (with 5 MBq and 1% ethanol; final 0.4% ethanol) and 2.1 µL of reference compound (final concentration 50 µM 1), or an equivalent of DMSO. The resulting mixture was mixed at 37 °C for 5 min, and the reaction was then initiated by the addition of 25 µL of NADPH (final 2 mM). After 1 h incubation, the resulting samples were mixed with ice-cold ACN (1/4, v/v) and vortexed for 30 s, placed on ice for 4 min, and finally centrifuged at 13,200 rpm for 5 min at 4 °C. The supernatant was separated and used for further analysis by radio-HPLC (6–10 µL injection volume; System 1b with 25–75% gradient elution) and radio-TLC analysis (2 µL applied on TLC, analysis as described above).

HepG2 CYP2C19 [5] = test: Competitive coincubation of [18F]1 with competitors, HepG2 CYP2C19; details: 1 h; without additional substances; 120–125 nM [18F]1
Method: as §2, §3, §4
Figure 7 Coincubation of [^18F]1 and different competitors with (A) HepG2 CYP1A2 and (B) HepG2 CYP2C19. […] Each competitor/inhibitor was incubated with [^18F]1 for 1 h followed by radio-TLC analysis. […]

HepG2 wildtype = test: Radiotracer metabolic stability, HepG2 wildtype, radio-TLC; assay type: in vitro ADME, human; details: up to 2 h
Method: as §5
as §1, with “experiments.” for “experiments. Cells were handled under a laminar flow hood (Thermo Scientific^TM Safe 2020, Langenselbold, Germany) and were split once or twice a week by trypsinization. Cell cultures were stored horizontally in a humidified incubator (Heracell240i) at 37 °C and 5% CO2.”

[6] = Radiotracer incubation in buffer only (control, without any cell line), radio-TLC; assay type: in vitro ADME
Method: as §6, with “The utilized substances within this study were neither found (see Supplementary Materials, Figure S14) nor reported to be cytotoxic within the utilized concentration range and incubation duration.” left out
as §7, with “The same procedure was performed for carrier-added samples.” left out

HepG2 CYP3A4 = test: Radiotracer metabolic stability, CYP3A4-overexpressing HepG2 cells; assay type: in vitro ADME, human; details: HepG2 CYP3A4, up to 2 h; radio-TLC
Method: as §5
as §1, with “experiments.” for “experiments. Cells were handled under a laminar flow hood (Thermo Scientific^TM Safe 2020, Langenselbold, Germany) and were split once or twice a week by trypsinization. Cell cultures were stored horizontally in a humidified incubator (Heracell240i) at 37 °C and 5% CO2.”

[7] = tested on: murine liver microsomes (MLMs); test: Microsome assay, murine liver microsomes; assay type: in vitro ADME; details: 1 h incubation
Method: as §8

HepG2 CYP1A2 [8] = test: Radiotracer metabolic stability, CYP1A2-overexpressing HepG2 cells; assay type: in vitro ADME, human; details: radio-TLC
Method: as §5
HepG2 cells were cultured in DMEM GlutaMax (Gibco, Paisley, UK) with 10% fetal calf serum (FCS) and with selective antibiotics (penicillin/streptomycin for wildtype, Zeocin (InvivoGen, San Diego, CA, USA) for CYP1A2, and Blasticidin (Gibco, Carlsbad, CA, USA) for CYP2C19 and CYP3A4 cultures). […] Cell density was determined with a cell counter (CASY® Model TT from Schärfe System, Reutlingen, Germany). […]
as §7, with “The same procedure was performed for carrier-added samples.” left out
UPLC–MS analyses were performed to verify the degradation behavior of the test compounds and to gain insights into the identity of the formed metabolites. […] Additionally, incubations with the nonradioactive references were carried out with 100 nM or 50 µM (according to the carrier-added samples) and analyzed. UPLC–MS/MS was performed using System 2 (55% isocratic elution for quantification of intact compound, or 25–75% gradient for nonradioactive metabolite analysis). […]

[9] = 1 h, CA versus without carrier addition

Fraction of activity in cell lysates (all utilized cell lines): 1–16%
Fraction of activity in supernatant (all utilized cell lines): 64–91%
Intact tracer [18F]1 remaining (HepG2 CYP1A2 [1]): 33%
Increase of intact tracer amount with carrier addition (HepG2 CYP2C19 [2]; [9]): 10 fold
Amount of intact tracer (HepG2 CYP2C19 [2]; 1 h, carrier-added (CA), 50 µM 1, radio-TLC): 67.2%
Amount of intact tracer (HepG2 CYP2C19 [2]; 1 h, without carrier addition, 24 MBq/mL (460 nM), radio-TLC): 6.6%
Intact tracer in supernatant (HepG2 CYP2C19 [2]; 1 h incubation, 2–4 MBq/mL (28–187 nM), radio-TLC): 1.3%
Increase of intact tracer amount with carrier addition [4, 9]: sevenfold
Amount of intact tracer ([4]; 1 h, carrier-added (CA), 50 µM 1): 30.3%
Amount of intact tracer ([4]; 1 h, without carrier addition, 38 MBq/mL (931 nM), 1 mg/mL microsomes, NADPH): 4.2%
Formation of second metabolite (M2) ([4]; 1 h incubation): observed
Intact tracer [18F]1 remaining (HepG2 CYP2C19 [5]): 11%
Metabolic turnover / stability of radiotracer (in words) (HepG2 wildtype): mainly intact radiotracer was found
Metabolic turnover / stability of radiotracer (in words) ([6]; buffer only, up to 2 h, radio-TLC): no metabolic turnover
Defluorination without additional enzymes in the incubation buffer (KHB) ([6]; reference incubation without any cell lines): to a minor extent
Metabolic turnover / stability of radiotracer (in words) (HepG2 CYP3A4): mainly intact radiotracer was found
Formation of second metabolite (M2) [7]: did not lead to the second metabolite
Intact tracer in supernatant (HepG2 CYP1A2 [8]; 2 h incubation, 2–4 MBq/mL (28–187 nM)): 14.6%
SMILES: Cc1ccc(-c2cc(C[18F])nn2-c2ccc(S(C)(=O)=O)cc2)cc1 [[^18F]1, 3-([^18F]fluoromethyl)-1-[4-(methylsulfonyl)phenyl]-5-(p-tolyl)-1H-pyrazole]
Metabolic turnover / stability of radiotracer (in words) (HepG2 CYP2C19 [2]; HepG2 CYP2C19, up to 2 h, radio-TLC): formation of radiometabolites was observed
Metabolic turnover / stability of radiotracer (in words) [3]: mainly intact radiotracer was found; also recorded: no metabolic turnover
Metabolic turnover / stability of radiotracer (in words) (HepG2 CYP1A2 [8]; HepG2 CYP1A2, up to 2 h): formation of radiometabolites was observed

Reference: paper PMC9368227, “Investigation of Radiotracer Metabolic Stability In Vitro with CYP-Overexpressing Hepatoma Cell Lines” (Cells, 2022)
